Experiment [1] has as its target B/BR/60/08 virus NA (Influenza B virus, UniProt C0LT34). It counts as biochemical. The conditions noted are these: read-out: NA enzyme inhibition assay (mean IC50 ± SD).
Experiment [2] addresses A/PR8-WT virus NA (Influenza A virus (H3N2), UniProt A0A193ACB1). It counts as biochemical.

pIC50: −log10 of the molar value.

As usually defined, the pIC50 is the IC50 on a negative log10 scale, so that one unit is a factor of ten.

With `CCC(CC)[C@H](NC(C)=O)[C@@H]1[C@H](O)[C@@H](C(=O)O)C[C@H]1N=C(N)N` [Peramivir, peramivir], the pIC50 in experiment [1] was 9.30; in experiment [2] (read-out: NA enzyme inhibition assay (mean IC50 ± SD)), 10.00. The “fold increase in IC50 over A/PR8-WT” value in experiment [2] was 0.1 ± 0.02 (1) fold.

The record behind these values is publication PMC5764337 (PLoS ONE, 2018).
